In ChEMBL document CHEMBL1133987, “Broad spectrum antiprotozoal agents that inhibit histone deacetylase: structure-activity relationships of apicidin. Part 1” (Bioorg Med Chem Lett, 2001) one finds IC50 and MIC data, which are given here for 25 molecules.

The IC50 is the midpoint of a concentration-inhibition curve. The term MIC denotes the lowest concentration that inhibits growth of the organism.

In one assay the test system is Plasmodium falciparum. As to the kind of experiment: In vitro antiprotozoal activity against Plasmodium falciparum 3D7 infected erythrocytes […]. It is filed as functional, organism-based.
The next assay addresses Histone deacetylase. As to the kind of experiment: Inhibitory activity against histone deacetylase (HDAC) derived from partially purified extracts of human HeLa cells.
For the next assay, the system named is Eimeria tenella. As to the kind of experiment: Antiprotozoal activity (functional assay) using […] bovine kidney (MDBK) host cells infected with Eimeria tenella.

In brackets after ≈: the same amount, converted by molar mass.

On to `C=C(CC)CCCCC[C@@H]1NC(=O)[C@H]2CCCCN2CC(=O)[C@H]([C@@H](C)CC)NC(=O)[C@H](Cc2cn(OC)c3ccccc23)NC1=O`, for which the values for the IC50 in the assay with Plasmodium falciparum and against Histone deacetylase were 1 µg/mL (≈ 1.57 µM) and 1450 nM, respectively. Moreover, the MIC in the assay with Eimeria tenella came out at 1 µg/mL (≈ 1.57 µM).

Regarding `CCCCCCCC[C@@H]1NC(=O)[C@H]2CCCCN2CC(=O)[C@H]([C@@H](C)CC)NC(=O)[C@H](Cc2cn(OC)c3ccccc23)NC1=O`, the IC50 with Plasmodium falciparum is 0.61 µg/mL (≈ 0.978 µM); against Histone deacetylase it was 61 nM. Besides, inhibition of growth with Eimeria tenella (MIC) required 1 µg/mL (≈ 1.6 µM).

On to `CCC(N)CCCCC[C@@H]1NC(=O)[C@H]2CCCCN2CC(=O)[C@H]([C@@H](C)CC)NC(=O)[C@H](Cc2cn(OC)c3ccccc23)NC1=O` (stereo partly specified), for which the concentration for half-maximal inhibition (IC50) in the assay on Plasmodium falciparum is more than 1 µg/mL; against Histone deacetylase, 144 nM. Also, in the assay with Eimeria tenella, the MIC was more than 1 µg/mL.

Take `CC[C@H](C)[C@@H]1NC(=O)[C@H](Cc2cn(OC)c3ccccc23)NC(=O)[C@H](CCCCCP(=O)(OC)OC)NC(=O)[C@H]2CCCCN2CC1=O`: the IC50 in the assay with Plasmodium falciparum came to 0.85 µg/mL (≈ 1.23 µM); against Histone deacetylase it was 450 nM. This molecule showed a minimal inhibitory concentration (MIC) in the assay on Eimeria tenella of more than 1 µg/mL.

Take `CCC(=O)CCCCC[C@@H]1NC(=O)[C@H]2CCCCN2CC(=O)[C@H]([C@@H](C)CC)NC(=O)[C@H](Cc2cn(OC)c3ccccc23)NC1=O`: the concentration for half-maximal inhibition (IC50) in the assay with Plasmodium falciparum worked out at 0.058 µg/mL (≈ 0.0909 µM); at Histone deacetylase, 1 nM. For the same molecule, the MIC with Eimeria tenella was 0.094 µg/mL (≈ 0.147 µM).

`CC[C@H](C)[C@@H]1NC(=O)[C@H](Cc2cn(OC)c3ccccc23)NC(=O)[C@H](CCCCCC(=O)NO)NC(=O)[C@H]2CCCCN2CC1=O`: in the assay on Plasmodium falciparum, it took 0.00024 µg/mL (≈ 0.000375 µM) to reach half-maximal inhibition (IC50). Besides, the MIC with Eimeria tenella was more than 0.5 µg/mL.

As for `CC[C@H](C)[C@@H]1NC(=O)[C@H](Cc2cn(OC)c3ccccc23)NC(=O)[C@H](CCCCCC(=O)C2CO2)NC(=O)[C@H]2CCCCN2CC1=O` (stereo partly specified), the IC50 in the assay on Plasmodium falciparum was less than 0.015 µg/mL; on Histone deacetylase, less than 0.1 nM. The molecule also displayed an MIC in the assay with Eimeria tenella of 0.003 µg/mL (≈ 0.0046 µM).

Consider `CC[C@H](C)[C@@H]1NC(=O)[C@H](Cc2cn(OC)c3ccccc23)NC(=O)[C@H](CCCCCC2(CC)CO2)NC(=O)[C@H]2CCCCN2CC1=O` (stereo partly specified), for which the IC50 in the assay with Plasmodium falciparum is 1 µg/mL (≈ 1.53 µM); at Histone deacetylase it was 60 nM. In the assay with Eimeria tenella, the MIC was more than 1 µg/mL.

Consider `CC[C@H](C)[C@@H]1NC(=O)[C@H](Cc2cn(OC)c3ccccc23)NC(=O)[C@H](CCCCCC(=O)OC)NC(=O)[C@H]2CCCCN2CC1=O`, for which the IC50 with Plasmodium falciparum was determined as 0.21 µg/mL (≈ 0.328 µM); against Histone deacetylase, 0.4 nM. Further, the MIC against Eimeria tenella is more than 1 µg/mL.

Take `CC[C@H](C)[C@@H]1NC(=O)[C@H](Cc2cn(OC)c3ccccc23)NC(=O)[C@H](CCCCNC(C)=O)NC(=O)[C@H]2CCCCN2CC1=O`: the IC50 in the assay on Plasmodium falciparum was found to be 1 µg/mL (≈ 1.6 µM); on Histone deacetylase, 2000 nM. In addition, the MIC with Eimeria tenella was more than 1 µg/mL.

In the case of `CC[C@H](C)[C@@H]1NC(=O)[C@H](Cc2cn(OC)c3ccccc23)NC(=O)[C@H](CCCCCCC(=O)O)NC(=O)[C@H]2CCCCN2CC1=O`, the values for the IC50 in the assay on Plasmodium falciparum and against Histone deacetylase were more than 1 µg/mL and 848 nM, respectively. The molecule also yielded an MIC in the assay with Eimeria tenella of more than 1 µg/mL.

On to `CC[C@H](C)[C@@H]1NC(=O)[C@H](Cc2cn(OC)c3ccccc23)NC(=O)[C@H](CCCCCC(=O)C(C)O)NC(=O)[C@H]2CCCCN2CC1=O` (stereo partly specified), for which the values for the IC50 with Plasmodium falciparum and against Histone deacetylase were 0.022 µg/mL (≈ 0.0336 µM) and 0.3 nM, respectively. The MIC in the assay on Eimeria tenella is 0.008 µg/mL (≈ 0.0122 µM).

On to `CC[C@H](C)[C@@H]1NC(=O)[C@H](Cc2cn(OC)c3ccccc23)NC(=O)[C@H](CCCCCC(=O)C(C)F)NC(=O)[C@H]2CCCCN2CC1=O` (stereo partly specified), for which the figures for the IC50 in the assay with Plasmodium falciparum and on Histone deacetylase were 0.028 µg/mL (≈ 0.0427 µM) and 1 nM, respectively. 0.062 µg/mL (≈ 0.0945 µM) was the least that counted as inhibitory in the assay on Eimeria tenella (MIC).

Regarding `CC[C@H](C)[C@@H]1NC(=O)[C@H](Cc2cn(OC)c3ccccc23)NC(=O)[C@H](CCCCCC(=O)C(C)=O)NC(=O)[C@H]2CCCCN2CC1=O`, the IC50 with Plasmodium falciparum turned out to be 0.9 µg/mL (≈ 1.38 µM); against Histone deacetylase, 30 nM. The molecule also came in with an MIC against Eimeria tenella of 0.25 µg/mL (≈ 0.384 µM).

On Histone deacetylase, `CCC(=O)C(O)CCCC[C@@H]1NC(=O)[C@H]2CCCCN2CC(=O)[C@H]([C@@H](C)CC)NC(=O)[C@H](Cc2cn(OC)c3ccccc23)NC1=O` (stereo partly specified) registered an IC50 of 39 nM. In the assay with Eimeria tenella, this molecule yielded an MIC of 1 µg/mL (≈ 1.53 µM).

As to `CC[C@H](C)[C@@H]1NC(=O)[C@H](Cc2cn(OC)c3ccccc23)NC(=O)[C@H](CCCCCC(=O)O)NC(=O)[C@H]2CCCCN2CC1=O`, the IC50 was more than 1 µg/mL in the assay with Plasmodium falciparum and 15 nM against Histone deacetylase. Inhibition of growth in the assay on Eimeria tenella (MIC) required 1 µg/mL (≈ 1.6 µM).

`CC[C@H](C)[C@@H]1NC(=O)[C@H](Cc2cn(OC)c3ccccc23)NC(=O)[C@H](CCCCC(=O)O)NC(=O)[C@H]2CCCCN2CC1=O` returned an IC50 at Histone deacetylase of 282 nM. Moreover, the MIC against Eimeria tenella is more than 1 µg/mL.

Take `CC[C@H](C)[C@@H]1NC(=O)[C@H](Cc2cn(OC)c3ccccc23)NC(=O)[C@H](CCCCCC(C)=O)NC(=O)[C@H]2CCCCN2CC1=O`: the IC50 stood at 0.055 µg/mL (≈ 0.0882 µM) in the assay with Plasmodium falciparum and 2 nM on Histone deacetylase. In the assay on Eimeria tenella, this molecule had a minimum inhibitory concentration (MIC) of 0.125 µg/mL (≈ 0.2 µM).

For the molecule `CC[C@H](C)[C@@H]1NC(=O)[C@H](Cc2cn(OC)c3ccccc23)NC(=O)[C@H](CCCCSC(C)=O)NC(=O)[C@H]2CCCCN2CC1=O`, the 50% inhibitory concentration (IC50) in the assay with Plasmodium falciparum was more than 1 µg/mL; against Histone deacetylase, 110 nM. Also, the minimum inhibitory concentration (MIC) in the assay on Eimeria tenella was more than 1 µg/mL.

For the molecule `CC[C@H](C)[C@@H]1NC(=O)[C@H](Cc2cn(OC)c3ccccc23)NC(=O)[C@H](CCCCCSC)NC(=O)[C@H]2CCCCN2CC1=O`, the concentration for half-maximal inhibition (IC50) is more than 1 µg/mL in the assay on Plasmodium falciparum and 326 nM against Histone deacetylase. The molecule further showed a minimum inhibitory concentration (MIC) with Eimeria tenella of more than 1 µg/mL.

On to `CCC(=O)C1OC1CCC[C@@H]1NC(=O)[C@H]2CCCCN2CC(=O)[C@H]([C@@H](C)CC)NC(=O)[C@H](Cc2cn(OC)c3ccccc23)NC1=O` (stereo partly specified), for which the IC50 came out at 0.35 µg/mL (≈ 0.537 µM) with Plasmodium falciparum and 5 nM against Histone deacetylase. The molecule further gave an MIC in the assay on Eimeria tenella of 0.15 µg/mL (≈ 0.23 µM).

On to `CC[C@H](C)[C@@H]1NC(=O)[C@H](Cc2cn(OC)c3ccccc23)NC(=O)[C@H](CCCCCC(=O)c2ccccc2)NC(=O)[C@H]2CCCCN2CC1=O`, for which the IC50 in the assay with Plasmodium falciparum came to 0.35 µg/mL (≈ 0.51 µM); on Histone deacetylase, 700 nM. The molecule also returned an MIC in the assay with Eimeria tenella of 1 µg/mL (≈ 1.46 µM).

Turning to `CCC(CCCCC[C@@H]1NC(=O)[C@H]2CCCCN2CC(=O)[C@H]([C@@H](C)CC)NC(=O)[C@H](Cc2cn(OC)c3ccccc23)NC1=O)SC(C)=O` (stereo partly specified), the IC50 with Plasmodium falciparum was 0.59 µg/mL (≈ 0.845 µM). The molecule further displayed an MIC against Eimeria tenella of 0.25 µg/mL (≈ 0.358 µM).

`CC[C@H](C)[C@@H]1NC(=O)[C@H](Cc2cn(OC)c3ccccc23)NC(=O)[C@H](CCCCCSC(C)=O)NC(=O)[C@H]2CCCCN2CC1=O`: the IC50 in the assay with Plasmodium falciparum was 0.9 µg/mL (≈ 1.37 µM); at Histone deacetylase it was 3 nM. The MIC against Eimeria tenella worked out at 1 µg/mL (≈ 1.52 µM).

As to `CCCC(=O)CCCCC[C@@H]1NC(=O)[C@H]2CCCCN2CC(=O)[C@H]([C@@H](C)CC)NC(=O)[C@H](Cc2cn(OC)c3ccccc23)NC1=O`, the values for the 50% inhibitory concentration (IC50) with Plasmodium falciparum and against Histone deacetylase were 0.15 µg/mL (≈ 0.23 µM) and 1 nM, respectively. The MIC in the assay on Eimeria tenella was 0.125 µg/mL (≈ 0.192 µM).
